Data reported in US10993987B2 (Sublimity Therapeutics Limited, priority 2014, dated 2021).

Key:
[1] = Example 11 emulsion stability: time point when crystallisation was observed (polarised light microscopy); type: physicochemical; details: for emulsion stability compared to sodium dodecyl sulfate (SDS): as aqueous phase surfactant of the cyclosporin emulsion
Experimental: Emulsions were prepared by mixing an oil phase and an aqueous phase, as described in Example 1. The oil phase was consistent for all emulsions of this example. The emulsion aqueous phase mixed was one of three aqueous mixtures. The three aqueous phases differed in the amount of surfactant, 0.7%, 1.3% and 2.5%, and water.
The emulsion was prepared by mixing the oil phase and aqueous phase in a oil:aqueous phase ratio of 1:5. The experiments were performed in triplicate, N=3. In order to replicate current manufacturing conditions as much as possible the following procedure was carried out: • Identical size beakers were used to ensure minimal variation between experiments • Identical submersible magnetic stirrers were placed in each beaker to keep the emulsions under constant magnetic stirring, and the same rpm stir rate used for each • Hot plates were used to maintain a constant emulsion temperature of 65° C. • Emulsions were kept covered with aluminium foil during the process
Sampling of the emulsion was carried out at various time points using disposable pipettes to avoid cross contamination.
(§1) Samples were withdrawn from each emulsion at half hour time intervals starting at time zero (t0) using a disposable pipette. Drops of emulsion were placed on a glass slide, pre heated on a hot plate. The sample was covered with a cover slip and a small amount of pressure applied to form a thin film of emulsion. The samples were allowed to solidify to room temperature before being viewed at ×50 and ×100 objective lens under polarised light to check for the presence of crystals. Results were recorded as optical photomicrographs with three images taken of each emulsion at each time point. Images documenting crystal growth and size with respect to time within the sample emulsion as well as background oil droplet size were collected.

[2] = Example 11 emulsion droplet size by photomicrographs; type: physicochemical
Source text: as §1
Photomicrographs of the emulsions enabled the investigation of the droplet size as well as crystal formation. Smaller, more uniform droplet size was preferred.

CCCCCCCCCCCCCCCCCCOS(=O)(=O)[O-].[Na+] [Sodium n-Octadecyl Sulfate]
emulsion stability compared to sodium dodecyl sulfate (SDS) [1]: comparable to that of sodium dodecyl sulfate
emulsion stability among tested surfactants ([1]; each concentration (0.7%, 1.3%, 2.5% in aqueous phase)): best stability for each concentration
emulsion droplet characteristics (smaller, more uniform droplet size preferred) [2]: preferred droplet characteristics were observed

CCCCCCCCOS(=O)(=O)[O-].[Na+] [Sodium n-Octyl Sulfate]
emulsion stability compared to sodium dodecyl sulfate (SDS) [1]: comparable to that of sodium dodecyl sulfate
emulsion droplet characteristics (smaller, more uniform droplet size preferred) [2]: preferred droplet characteristics were observed
